“And” between values parts separate entries of the source, which are not always exact repeats. Equal values may be shown once.
Tests used:
glycerol release = assay: Glycerol release in eWAT of db/db mice (isoproterenol); assay type: in vivo; design: Glycerol release in eWAT (Figure 4m): unit not given here
Procedure: The epididymal adipose tissue was dissected, the fresh adipose tissue was weighed and rapidly rinsed with PBS. The adipose tissue was cut and incubated with isoproterenol (10 μM) for 2 h, and homogenized in a cold cleavage buffer to prepare the adipose tissue homogenate. Then the homogenate was centrifuged at 12,000 × g at 4 °C for 15 min, and the supernatant was collected. […] Then the cells were lysed in a petri dish, scraped off, and centrifuged at 12,000 × g at 4 °C for 15 min before the supernatant was collected. […] And concentrations were further standardized according to protein concentration.

db/db mice [1] = assay: Glucose tolerance test (GTT); assay type: in vivo; conditions: for blood glucose level, mean: mean of 10 mice
[2] = Solubility in water and octanol and log P at 25°C
Excerpt: beyond changes in oral bioavailability and solubility. This is particularly relevant when […]
L og P is the logarithmic value of the oil-water partition coefficient P, which refers to the partition equilibrium of undissociated molecules in the oil and water phases. The log P value is closely related to the water solubility, membrane permeability, in vivo ADME process, and affinity of the compound to the receptor and plays a vital role in the permeation of compounds through biological membranes. The log P 0-5 range is optimal for oral drug penetration by passive diffusion, with poor water solubility for high log P compounds and poor lipid […]
experiments to exert drug activity in cells.

[3] = test system: F4/80-positive macrophages; assay: Immunohistochemical staining of eWAT for F4/80; assay type: in vivo, mice; conditions: for Quantification of immunohistochemical staining: Figure 5k, individual values
Procedure: (§1) The adipose tissue was fixed overnight in 4% paraformaldehyde, then embedded in paraffin and cut into 5 µm thick slices. Tissue sections were stained with hematoxylin and eosin (H&E). For immunohistochemistry, sections were incubated with primary antibodies against F4/80 (1:100 dilution) diluted in the blocking solution at 4 °C overnight. The tissue sections were then incubated with the horseradish peroxidase (HRP)-conjugated secondary antibody at room temperature for 2 h. Finally, the sections were developed with diaminobenzidine (DAB) and counterstained with hematoxylin. Images were obtained under a microscope. To quantify the F4/80-positive macrophages, two random fields per sample were analyzed by Image J software. The IHC profiler plugin of ImageJ was used to calculate the F4/80 positive area.

[4] = In vitro dissolution studies: dynamic solubility in buffers and simulated biological fluids; assay type: physicochemical; conditions: CMC-Na, mean
Procedure: Solubilities were determined by adding excess sample to 30 mL different mediums, such as HCl solution, acetate buffer, phosphate buffer, SGF, FaSSIF and FeSSIF. The configuration of various buffer solutions is shown in Supplementary Table 2. After being shaken at 400 rpm at 37 °C for 0.5, 1, 2, and 24 h, 0.3 mL of suspension was sampled and centrifuged at 14,000 rpm for 8 min to isolate mother liquor, and then analyzed by HPLC after dilution. All samples were analyzed in triplicate.

TNF-α and IL-6 = TNF-α and IL-6 in supernatant of TNF-α induced 3T3-L1 adipocytes (ELISA); assay type: cell-based, Murine; design: levels of TNF-α / levels of IL-6: unit not given here
Procedure: We next examined the role of BJ on TNF-α induced inflammation of differentiated 3T3-L1 adipocytes.
The serum was collected by centrifugation at 3000 × g at 4 °C for 15 min and stored at −80 °C until analysis. TG, TC, LDL-C, HDL-C, and FFA were routinely tested on a Chemray 240 automatic biochemical analyzer (Chemray 240, Shenzhen, China). Serum levels of mouse adiponectin, interleukin6 (IL-6), tumor necrosis factor-α (TNF-α) were measured using commercial enzyme-linked immunosorbent assay (ELISA) kits (Nanjing Jiancheng Bioengineering Institute, Nanjing, China) and according to the manufacturer’s instructions. The levels of IL-6, TNF-α in 3T3-L1 adipocyte culture supernatant were also detected by ELISA.

db/db mice [5] = assay: HE staining of epididymal adipose tissue, adipocyte size; assay type: in vivo; conditions: for Cell diameter (adipocyte size of eWAT): individual cells
Procedure: as §1

db/db mice [6] = assay: Serum ASAT, ALAT, BUN and Cr (toxicity) in db/db mice; assay type: in vivo
db/db mice [7] = assay: Weekly fasting glucose levels of db/db mice; assay type: in vivo; conditions: for Weekly fasting glucose levels of db/db mice (Figure 5a): individual mice 1-10, in mmol/L; for Fasting blood glucose level at the end of the treatment: mouse, in vivo
Procedure: The lean wild type control and the db/db control mice were given equal vehicle volume (0.5% CMC-Na solution). All mice were monitored for food intake, body weight, and fasting blood glucose during the 35-day trial. Glucose tolerance test (GTT) and insulin resistance test (ITT) were performed at 4 and 5 weeks of treatment, respectively. Metabolic analysis was performed at 5 weeks of treatment. At the end of the study, blood samples were taken through the retroorbital venous sinus of mice, fat depots (brown fat, inguinal subcutaneous fat, epididymal fat, perirenal fat and mesenteric fat depot) were dissected, weighed, and immediately frozen in liquid nitrogen and stored at −80 °C until required. Weight of fat depots are expressed in percentage (fat depots weight /bodyweight * 100%).

## CC(C)Cc1ccc(C(C)C(=O)[O-])cc1.COc1ccc2cc3[n+](cc2c1OC)CCc1cc2c(cc1-3)OCO2.O.O.O.O [BJ, berberine-ibuprofen]
Glycerol release; db/db mice, isoproterenol stimulation
  Release of glycerol in eWAT: promoted the release of glycerol
Glycerol release; db/db+ISO+BJ 75mg/kg, individual samples 1-6
  Glycerol release in eWAT (Figure 4m): 372.977 and 400.82 and 389.008 and 382.258 and 389.852 and 395.758
db/db mice [1]; BJ 75mg/kg, time column 1 of 7 (time not printed)
  blood glucose level, mean: 20.5 mmol/L
db/db mice [1]; BJ 75mg/kg, time column 2 of 7 (time not given)
  blood glucose level, mean: 26.6 mmol/L
db/db mice [1]; BJ 75mg/kg, time column 3 of 7 (time not given)
  blood glucose level, mean: 31.4 mmol/L
db/db mice [1]; BJ 75mg/kg, time column 4 of 7 (time not given)
  blood glucose level, mean: 32 mmol/L
db/db mice [1]; BJ 75mg/kg, time column 5 of 7 (time not given)
  blood glucose level, mean: 31.2 mmol/L
db/db mice [1]; BJ 75mg/kg, time column 6 of 7 (time not given)
  blood glucose level, mean: 28.2 mmol/L
db/db mice [1]; BJ 75mg/kg, time column 7 of 7 (time not printed)
  blood glucose level, mean: 23.2 mmol/L
db/db mice [1]; BJ 150mg/kg, time column 1 of 7 (time not printed)
  blood glucose level, mean: 12.3 mmol/L
db/db mice [1]; BJ 150mg/kg, time column 2 of 7 (time not given)
  blood glucose level, mean: 26.4 mmol/L
db/db mice [1]; BJ 150mg/kg, time column 3 of 7 (time not given)
  blood glucose level, mean: 27.7 mmol/L
db/db mice [1]; BJ 150mg/kg, time column 4 of 7 (time not given)
  blood glucose level, mean: 24.1 mmol/L
db/db mice [1]; BJ 150mg/kg, time column 5 of 7 (time not given)
  blood glucose level, mean: 21.2 mmol/L
db/db mice [1]; BJ 150mg/kg, time column 6 of 7 (time not given)
  blood glucose level, mean: 18.4 mmol/L
db/db mice [1]; BJ 150mg/kg, time column 7 of 7 (time not printed)
  blood glucose level, mean: 15.8 mmol/L
db/db mice [1]; db/db mice, 150 mg/kg, week 4
  Glucose tolerance (GTT): displayed better tolerance to glucose load
[2]
  log P: 1.564
[3]; BJ 75mg/kg
  Quantification of immunohistochemical staining: 0.9922 and 0.9735 and 1.1881 and 1.5389 and 0.7221 and 0.7355
[3]; BJ 150mg/kg
  Quantification of immunohistochemical staining: 0.2082 and 0.4937 and 0.5395 and 0.2725 and 0.374 and 0.2768
[3]; db/db mice, epididymal fat pads
  Proportion of F4/80-positive macrophages around adipocytes: lower than that of the vehicle-treated db/db mice
[4]; time 0.5
  BBR dissolved in CMC-Na (Figure S7a): 0.8321
  Ibu dissolved in CMC-Na (Figure S7b): 0.4805
[4]; time 1
  BBR dissolved in CMC-Na (Figure S7a): 1.458
  Ibu dissolved in CMC-Na (Figure S7b): 0.5844
[4]; time 2
  BBR dissolved in CMC-Na (Figure S7a): 1.5642
  Ibu dissolved in CMC-Na (Figure S7b): 0.6306
[4]; time 24
  BBR dissolved in CMC-Na (Figure S7a): 1.6671
  Ibu dissolved in CMC-Na (Figure S7b): 0.6693
TNF-α and IL-6; 3T3-L1 adipocytes treated with TNF-α
  Levels of TNF-α and IL-6 in the supernatant: significantly reduced the levels of TNF-α and IL-6
TNF-α and IL-6; Figure 7e, TNF-α(50ng/ml)+10μM BJ, replicates
  levels of TNF-α: 96.425 and 110.916 and 111.046 and 97.6978 and 106.64 and 114.538
db/db mice [5]; 75 mg/kg
  Cell diameter (adipocyte size of eWAT): 121.031 µm and 117.863 µm and 116.509 µm and 116.462 µm and 115.083 µm and 111.737 µm and 111.179 µm and 109.716 µm and 106.71 µm and 106.209 µm and 103.54 µm and 98.2043 µm and 95.428 µm and 94.4084 µm and 90.8792 µm and 133.968 µm and 130.976 µm and 129.724 µm and 125.916 µm and 124.05 µm
db/db mice [5]; 150 mg/kg
  Cell diameter (adipocyte size of eWAT): 102.304 µm and 92.1827 µm and 91.4137 µm and 90.3818 µm and 88.4919 µm and 87.3914 µm and 86.5338 µm and 86.4994 µm and 85.9825 µm and 85.1497 µm and 81.6079 µm and 81.6018 µm and 80.5245 µm and 80.4936 µm and 112.756 µm and 110.047 µm and 105.5 µm and 104 µm and 102.927 µm
db/db mice [5]; BJ 75 and 150 mg/kg, BBR 150 mg/kg, Ibu 150 mg/kg
  Size of adipocytes in eWAT compared with vehicle: significantly reduced
db/db mice [6]; 150mg/kg, db/db mice, individual animals
  AST: 123.8 U/L
db/db mice [6]; mouse, in vivo
  Fasting serum ASAT, ALAT, BUN, and Cr levels: reduced fasting serum ASAT, ALAT, BUN, and Cr levels
db/db mice [7]; BJ 75mg/kg, 1st of 6 weekly columns (time not given)
  Weekly fasting glucose levels of db/db mice (Figure 5a): 10.4 and 12.5 and 9.4 and 17.8 and 11.6 and 18.6 and 12.1 and 17.5 and 20.6 and 14.4
db/db mice [7]; BJ 75mg/kg, 2nd of 6 weekly columns (time not given)
  Weekly fasting glucose levels of db/db mice (Figure 5a): 21.7 and 12.2 and 16.6 and 18.3 and 16.2 and 21.2 and 15.0 and 18.5 and 24.4 and 17.9
db/db mice [7]; BJ 75mg/kg, 3rd of 6 weekly columns (time not given)
  Weekly fasting glucose levels of db/db mice (Figure 5a): 27.0 and 17.1 and 16.6 and 26.0 and 22.1 and 24.6 and 22.7 and 19.1 and 24.8 and 20.1
db/db mice [7]; BJ 75mg/kg, 4th of 6 weekly (time not given)
  Weekly fasting glucose levels of db/db mice (Figure 5a): 16.0 and 19.4 and 17.3 and 23.1 and 21.0 and 18.7 and 20.0 and 16.7 and 18.3 and 19.6
db/db mice [7]; BJ 75mg/kg, 5th of 6 weekly (time not given)
  Weekly fasting glucose levels of db/db mice (Figure 5a): 8.5 and 16.1 and 10.1 and 17.8 and 19.9 and 13.5 and 18.2 and 12.3 and 18.1 and 11.2
db/db mice [7]; BJ 75mg/kg, 6th of 6 weekly (time not given)
  Weekly fasting glucose levels of db/db mice (Figure 5a): 8.3 and 14.2 and 11.5 and 16.0 and 17.3 and 15.9 and 14.1 and 11.0 and 16.7 and 10.7
db/db mice [7]; BJ 150mg/kg, 1st of 6 weekly columns (time not given)
  Weekly fasting glucose levels of db/db mice (Figure 5a): 19.4 and 13.4 and 14.8 and 9.9 and 15.4 and 23.3 and 12.6
db/db mice [7]; BJ 150mg/kg, 2nd of 6 weekly columns (time not given)
  Weekly fasting glucose levels of db/db mice (Figure 5a): 13.5 and 10.8 and 19.3 and 10.6 and 16.2 and 16.8 and 22.9 and 16.4
db/db mice [7]; BJ 150mg/kg, 3rd of 6 weekly columns (time not given)
  Weekly fasting glucose levels of db/db mice (Figure 5a): 19.8 and 11.7 and 18.2 and 15.6 and 20.6 and 18.3
db/db mice [7]; BJ 150mg/kg, 4th of 6 weekly (time not given)
  Weekly fasting glucose levels of db/db mice (Figure 5a): 11.5 and 5.7 and 10.5 and 13.7 and 14.1 and 14.7
db/db mice [7]; BJ 150mg/kg, 5th of 6 weekly (time not given)
  Weekly fasting glucose levels of db/db mice (Figure 5a): 6.7 and 14.3 and 13.7 and 9.3 and 8.8 and 13.9
db/db mice [7]; BJ 150mg/kg, 6th of 6 weekly (time not given)
  Weekly fasting glucose levels of db/db mice (Figure 5a): 6.5 and 5.0 and 10.0 and 11.4 and 7.4 and 7.3 and 17.8
db/db mice [7]; db/db mice, BJ 75 and 150 mg/kg, BBR 150 mg/kg, Ibu 150 mg/kg
  Blood (serum) glucose levels compared with vehicle: slowed the increase in glucose levels
db/db mice [7]; 75 mg/kg
  Fasting blood glucose level at the end of the treatment: 13.6 ± 3.0 mmol/L
db/db mice [7]; 150 mg/kg
  Fasting blood glucose level at the end of the treatment: 9.4 ± 3.6 mmol/L
